This note sets out measurements from patent US20260365647A1, “AKT1 MODULATORS” (Alterome Therapeutics, Inc., priority 2022, published 2026).

Structures are written as SMILES. A value given as a limit tells only on which side of the number the result lay.

The target in this assay is T1, AKT1-E17K (Homo sapiens, UniProt P31749, E17K).
T1 construct: host or cells: HEK-293 (ATCC CRL-1573)
T1 sequence (P31749 whole entry E17K): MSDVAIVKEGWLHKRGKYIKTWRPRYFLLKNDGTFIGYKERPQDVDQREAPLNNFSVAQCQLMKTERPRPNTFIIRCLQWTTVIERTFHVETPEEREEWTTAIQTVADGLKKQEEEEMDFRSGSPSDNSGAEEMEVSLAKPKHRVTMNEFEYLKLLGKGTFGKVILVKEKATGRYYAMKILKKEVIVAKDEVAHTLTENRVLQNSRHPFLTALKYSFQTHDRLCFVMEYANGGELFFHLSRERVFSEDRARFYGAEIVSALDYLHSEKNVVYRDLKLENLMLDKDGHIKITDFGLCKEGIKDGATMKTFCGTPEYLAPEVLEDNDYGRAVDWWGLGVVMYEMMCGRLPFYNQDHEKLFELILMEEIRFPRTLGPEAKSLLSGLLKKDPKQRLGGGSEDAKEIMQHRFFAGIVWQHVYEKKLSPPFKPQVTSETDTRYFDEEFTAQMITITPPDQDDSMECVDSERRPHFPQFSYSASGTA
The assay is described as follows: NanoBRET Target Engagement (TE) Assay. The format is cell-based. The text has this: The NanoBRET™ Target Engagement (TE) Intracellular Kinase Assays are based on the NanoBRET™ System (Promega Corporation), an energy transfer technique designed to measure molecular proximity in living cells. The NanoBRET™ TE Assays measure the apparent affinity of test compounds by competitive displacement of the NanoBRET™ tracer compound, which is a cell permeable molecule engineered to be reversibly bound to a NanoLuc® luciferase-kinase fusion expressed in cells. For compound screening, when a test compound binds to the selected kinase, the BRET signal is attenuated. […] All cells were evaluated for viability prior to transfection and optimization of the transfection was done prior to experimentation. […] Following transfection, cells were washed and resuspended in Opti-MEM. NanoBRET assays were performed in white, 384-well plates (Corning) at a density of […]. All example compounds were prepared as concentrated stock solutions in DMSO (Sigma-Aldrich). Compounds are dissolved in DMSO to make 10 mM stock solution. […] A Labcyte ECHO 550 compound dispenser was used to facilitate compound transfer directly to cells. Cells were equilibrated for 2 hr with energy transfer probes and example compound prior to BRET measurements. […] For target engagement analysis, the energy transfer probes were added to the cells at concentrations optimized for the target in question (AKT E17K). Following compound incubation, NanoBRET NanoGlo Substrate (Promega Cat #N157D) and Extracellular Nanoluc Inhibitor (Promega Cat #N235C) was added according to the manufacturer's recommended protocol, and luminescence was measured on Envision Reader (Perkin Elmer) Multimode Luminometer equipped with 450 nmBPfilter (donor) and 600 nmLPfilter (acceptor), using 0.5 s integration time. Milli-BRET units (mBU) are calculated by multiplying the raw BRET values by 1000. Apparent tracer affinity values (EC50) were determined using the sigmoidal dose-response (variable slope). Competitive displacement data were then plotted and data were fit to determine the EC50 value for each example compound.
By IC50 is commonly meant the concentration that gives 50% inhibition. Lower therefore signals higher potency. For the molecule `Nc1ncccc1-c1nc2ccc(-c3ccccc3)nc2n1-c1ccc(CN2CCCCC(NC(=O)c3ccc(O)c(C=O)c3)C2)cc1` (stereo not drawn) [Example 117, N-(1-(4-(2-(2-Aminopyridin-3-yl)-5-phenyl-3H-imidazo[4,5-b]pyridin-3-yl)benzyl)azepan-3-yl)-3-formyl-4-hydroxybenzamide], the IC50 is > 600 nM. For `Nc1ncccc1-c1nc2ccc(-c3ccccc3)nc2n1-c1ccc(COc2ccc(C=O)c(O)c2)cc1` [Example 138, 4-((4-(2-(2-Aminopyridin-3-yl)-5-phenyl-3H-imidazo[4,5-b]pyridin-3-yl)benzyl)oxy)-2-hydroxybenzaldehyde] the value was 60 to 600 nM; for `Nc1ncccc1-c1nc2ccc(-c3ccccc3)nc2n1-c1ccc(CN2CCC(Nc3ccc(C=O)c(O)c3)CC2)cc1` [Example 47, 4-((1-(4-(2-(2-Aminopyridin-3-yl)-5-phenyl-3H-imidazo[4,5-b]pyridin-3-yl)benzyl)piperidin-4-yl)amino)-2-hydroxybenzaldehyde], 60 to 600 nM; for `Nc1ncccc1-c1nc2ccc(-c3ccccc3)nc2n1-c1ccc(CN2C[C@@H]3C[C@H]2CN3C(=O)c2ccc(C=O)c(O)c2)cc1` [Example 122, 4-((1S,4S)-5-(4-(2-(2-Aminopyridin-3-yl)-5-phenyl-3H-imidazo[4,5-b]pyridin-3-yl)benzyl)-2,5-diazabicyclo[2.2.1]heptane-2-carbonyl)-2-hydroxybenzaldehyde], 15 to 60 nM. Regarding `Nc1ncccc1-c1nc2ccc(-c3ccccc3)nc2n1-c1ccc(CN2CCC3(CCN(c4ccc(C=O)c(O)c4)CC3)C2)cc1` [Example 85, 4-(2-(4-(2-(2-Aminopyridin-3-yl)-5-phenyl-3H-imidazo[4,5-b]pyridin-3-yl)benzyl)-2,8-diazaspiro[4.5]decan-8-yl)-2-hydroxybenzaldehyde], the IC50 is 60 to 600 nM. For `Nc1ncccc1-c1nc2ccc(-c3ccccc3)nc2n1-c1ccc(CN2CCN(c3ccc(C=O)c(O)c3)CC2)cc1` [Example 9, 4-(4-(4-(2-(2-Aminopyridin-3-yl)-5-phenyl-3H-imidazo[4,5-b]pyridin-3-yl)benzyl)piperazin-1-yl)-2-hydroxybenzaldehyde] the value was 15 to 60 nM; for `Nc1ncccc1-c1nc2ccc(-c3ccccc3)nc2n1-c1ccc(CN2CCC(Oc3ccc(O)c(C=O)c3)CC2)cc1` [Example 130, 5-((1-(4-(2-(2-Aminopyridin-3-yl)-5-phenyl-3H-imidazo[4,5-b]pyridin-3-yl)benzyl)piperidin-4-yl)oxy)-2-hydroxybenzaldehyde], 60 to 600 nM; for `Nc1ncccc1-c1nc2ccc(-c3cccc(Cl)c3)nc2n1-c1ccc(CN2CCN(C(=O)c3ccc(C=O)c(O)c3)CC2)cc1` [Example 43, 4-(4-(4-(2-(2-Aminopyridin-3-yl)-5-(3-chlorophenyl)-3H-imidazo[4,5-b]pyridin-3-yl)benzyl)piperazine-1-carbonyl)-2-hydroxybenzaldehyde], 60 to 600 nM. For `Nc1ncccc1-c1nc2ccc(-c3ccccc3F)nc2n1-c1ccc(CN2CCN(C(=O)c3ccc(O)c(C=O)c3)CC2)cc1` [Example 141, 5-(4-(4-(2-(2-Aminopyridin-3-yl)-5-(2-fluorophenyl)-3H-imidazo[4,5-b]pyridin-3-yl)benzyl)piperazine-1-carbonyl)-2-hydroxybenzaldehyde] the value was 15 to 60 nM; for `Nc1ncccc1-c1nc2ccc(-c3ccccc3)nc2n1-c1ccc(CN2CCN(C(=O)c3ccc(C=O)c(O)c3)CC2)cc1` [Example 6, 4-(4-(4-(2-(2-Aminopyridin-3-yl)-5-phenyl-3H-imidazo[4,5-b]pyridin-3-yl)benzyl)piperazine-1-carbonyl)-2-hydroxybenzaldehyde], 60 to 600 nM. The molecule `Nc1ncccc1-c1nc2ccc(-c3ccccc3)nc2n1-c1ccc(CN2CCC3(CCN(c4ccc(O)c(C=O)c4)C3)C2)cc1` (stereo not drawn) [Example 83, 5-(7-(4-(2-(2-Aminopyridin-3-yl)-5-phenyl-3H-imidazo[4,5-b]pyridin-3-yl)benzyl)-2,7-diazaspiro[4.4]nonan-2-yl)-2-hydroxybenzaldehyde] came in with an IC50 of 60 to 600 nM.

On to `Nc1ncccc1-c1nc2ccc(-c3ccccc3)nc2n1-c1ccc(CN2CCC(Oc3ccc(C=O)c(O)c3)CC2)cc1` [Example 129, 4-((1-(4-(2-(2-Aminopyridin-3-yl)-5-phenyl-3H-imidazo[4,5-b]pyridin-3-yl)benzyl)piperidin-4-yl)oxy)-2-hydroxybenzaldehyde], for which the IC50 fell in the range of 15 to 60 nM. For `Nc1ncccc1-c1nc2ccc(-c3ccccc3)nc2n1-c1ccc(CN2CC3(CCN(C(=O)c4ccc(O)c(C=O)c4)C3)C2)cc1` [Example 92, 5-(2-(4-(2-(2-Aminopyridin-3-yl)-5-phenyl-3H-imidazo[4,5-b]pyridin-3-yl)benzyl)-2,6-diazaspiro[3.4]octane-6-carbonyl)-2-hydroxybenzaldehyde] the value was 15 to 60 nM; for `Nc1ncccc1-c1nc2ccc(-c3ccccc3)nc2n1-c1ccc(CN2CC3(CCN(C(=O)c4ccc(C=O)c(O)c4)C3)C2)cc1` [Example 93, 4-(2-(4-(2-(2-Aminopyridin-3-yl)-5-phenyl-3H-imidazo[4,5-b]pyridin-3-yl)benzyl)-2,6-diazaspiro[3.4]octane-6-carbonyl)-2-hydroxybenzaldehyde], 60 to 600 nM. For `Nc1ncccc1-c1nc2ccc(-c3ccccc3)nc2n1-c1ccc(CN2CCN(C(=O)c3ccc(O)c(C=O)c3)CC2)cc1` [Example 5, 5-(4-(4-(2-(2-Aminopyridin-3-yl)-5-phenyl-3H-imidazo[4,5-b]pyridin-3-yl)benzyl)piperazine-1-carbonyl)-2-hydroxybenzaldehyde] the value was 60 to 600 nM; for `Nc1ncccc1-c1nc2ccc(-c3ccccc3)nc2n1-c1ccc(CN2CCC3(CCN(C(=O)c4ccc(O)c(C=O)c4)CC3)C2)cc1` [Example 84, 5-(2-(4-(2-(2-Aminopyridin-3-yl)-5-phenyl-3H-imidazo[4,5-b]pyridin-3-yl)benzyl)-2,8-diazaspiro[4.5]decane-8-carbonyl)-2-hydroxybenzaldehyde], 60 to 600 nM; for `Nc1ncccc1-c1nc2ccc(-c3ccccc3)nc2n1-c1ccc(CN2C3CCC2CN(c2ccc(C=O)c(O)c2)C3)cc1` [Example 114, 4-(8-(4-(2-(2-Aminopyridin-3-yl)-5-phenyl-3H-imidazo[4,5-b]pyridin-3-yl)benzyl)-3,8-diazabicyclo[3.2.1]octan-3-yl)-2-hydroxybenzaldehyde], 60 to 600 nM. As for `Nc1ncccc1-c1nc2ccc(-c3ccccc3)nc2n1-c1ccc(CN2CC[C@]3(CCN(C(=O)c4ccc(C=O)c(O)c4)C3)C2)cc1` [Example 102, (S)-4-(7-(4-(2-(2-Aminopyridin-3-yl)-5-phenyl-3H-imidazo[4,5-b]pyridin-3-yl)benzyl)-2,7-diazaspiro[4.4]nonane-2-carbonyl)-2-hydroxybenzaldehyde], the IC50 was in the range of 60 to 600 nM. `Nc1ncccc1-c1nc2ccc(-c3ccccc3)nc2n1-c1ccc(CN2CC3(C2)CN(C(=O)c2ccc(C=O)c(O)c2)C3)cc1` [Example 66, 4-(6-(4-(2-(2-Aminopyridin-3-yl)-5-phenyl-3H-imidazo[4,5-b]pyridin-3-yl)benzyl)-2,6-diazaspiro[3.3]heptane-2-carbonyl)-2-hydroxybenzaldehyde] came in with an IC50 of 60 to 600 nM.

`Nc1ncccc1-c1nc2cc(-c3ccccc3)cnc2n1-c1ccc(CN2CCN(c3ccc(C=O)c(O)c3)CC2)cc1` [Example 54, 4-(4-(4-(2-(2-Aminopyridin-3-yl)-6-phenyl-3H-imidazo[4,5-b]pyridin-3-yl)benzyl)piperazin-1-yl)-2-hydroxybenzaldehyde] gave an IC50 of 60 to 600 nM. `Nc1ncccc1-c1nc2ccc(-c3ccccc3)nc2n1-c1ccc(CN2CCCC(NC(=O)c3ccc(O)c(C=O)c3)CC2)cc1` (stereo not drawn) [Example 115, N-(1-(4-(2-(2-Aminopyridin-3-yl)-5-phenyl-3H-imidazo[4,5-b]pyridin-3-yl)benzyl)azepan-4-yl)-3-formyl-4-hydroxybenzamide] returned a 50% inhibitory concentration (IC50) of 15 to 60 nM. For `Nc1ncccc1-c1nc2ccc(-c3ccccc3)nc2n1-c1ccc(CN2CC3(CCN(C(=O)c4ccc(C=O)c(O)c4)CC3)C2)cc1` [Example 96, 4-(2-(4-(2-(2-Aminopyridin-3-yl)-5-phenyl-3H-imidazo[4,5-b]pyridin-3-yl)benzyl)-2,7-diazaspiro[3.5]nonane-7-carbonyl)-2-hydroxybenzaldehyde] the value was 60 to 600 nM; for `Nc1ncccc1-c1nc2ccc(-c3ccccc3)nc2n1-c1ccc(CN2C3CCC2CN(C(=O)c2ccc(C=O)c(O)c2)C3)cc1` [Example 113, 4-(8-(4-(2-(2-Aminopyridin-3-yl)-5-phenyl-3H-imidazo[4,5-b]pyridin-3-yl)benzyl)-3,8-diazabicyclo[3.2.1]octane-3-carbonyl)-2-hydroxybenzaldehyde], 60 to 600 nM. As for `Nc1ncccc1-c1nc2ccc(-c3ccccc3)nc2n1-c1ccc(CN2CCC(NC(=O)c3cccc(C=O)c3O)CC2)cc1` [Example 49, N-(1-(4-(2-(2-aminopyridin-3-yl)-5-phenyl-3H-imidazo[4,5-b]pyridin-3-yl)benzyl)piperidin-4-yl)-3-formyl-2-hydroxybenzamide], the IC50 fell in the range of 15 to 60 nM.
